Literature values as cited in patent US7718595B2, “Light duty liquid cleaning compositions and methods of manufacture and use thereof comprising organic acids” (priority 2008, dated 2010).

What was measured:
[1] = list category
[2] = not given; remark: listed apart in the source

Molecule	EPA Inert List [1]	pKa	solubility in water [2]
CCO [Ethanol]	4B	–	–
CC(O)C(=O)O (centres unmarked) [Lactic acid]	4B	about 3.8	–
CCCCCCCCCCCC(=O)NCCC[N+](C)(C)CC(=O)[O-] [Laurylamidopropyl Betaine]	3	–	–
O=S(=O)([O-])[O-].[Mg+2] [Mg2SO4]	4A	–	–
O=C([O-])CN(CCN(CC(=O)[O-])CC(=O)[O-])CC(=O)[O-].[Na+].[Na+].[Na+].[Na+] [Na4EDTA]	4B	–	–
O=P(O)(O)OP(=O)(O)OP(=O)(O)O [Sodium tripolyphosphate]	–	–	about 14 wt-%
sodium xylene sulfonate [SXS]	3	–	–
